The experiment deals with T1, PE-labeled human PD-L1-Ig binding to Jurkat cell line over-expressing human PD-1 (Jurkat-PD-1) (Homo sapiens, UniProt Q15116).
T1 construct: expressed in transfected cells; host or cells: Jurkat
Nature of the experiment: Jurkat-PD-1 Cell Binding High-Content Screening Assay (CBA): Method 1.

Setting [1] is: Jurkat-hPD-1 cells, PE-labeled PD-L1-Ig 20 nM final, read-out: Jurkat HPDL1 PD1 IC50 (uM) (Method 1).

In patent US20240409585A1, “MACROCYCLIC IMMUNOMODULATORS” (priority 2021, published 2024) one finds IC50 data, which are given here for 14 compounds.

Read-outs that look alike come from different tables or passages of the source. Bridge positions count the residues as written; N and C are the ends. Square brackets hold non-standard residues; d marks the D form. Peptide text beside a SMILES is read from it. * marks the point of attachment. ξ: configuration not given here. Phe(3-CF3) = N[C@@H](Cc1cccc(C(F)(F)F)c1)C(=O)O; Ala(morpholin-4-yl) = N[C@@H](CN1CCOCC1)C(=O)O; Phe(4-COOH) = N[C@@H](Cc1ccc(C(=O)O)cc1)C(=O)O; Tyr(Ph) = N[C@@H](Cc1ccc(Oc2ccccc2)cc1)C(=O)O; Phe(4-CH2NH2) = NCc1ccc(C[C@H](N)C(=O)O)cc1; Bip = N[C@@H](Cc1ccc(-c2ccccc2)cc1)C(=O)O; Phe(3-CN) = N#Cc1cccc(C[C@H](N)C(=O)O)c1; Phe(3-Me) = Cc1cccc(C[C@H](N)C(=O)O)c1; Phe(4-F) = N[C@@H](Cc1ccc(F)cc1)C(=O)O; Val(3-OH) = CC(C)(O)[C@H](N)C(=O)O; 4Pal = N[C@@H](Cc1ccncc1)C(=O)O; Cha = N[C@@H](CC1CCCCC1)C(=O)O; Cit = NC(=O)NCCC[C@H](N)C(=O)O; Ile(3ξ) = CCC(C)[C@H](N)C(=O)O; Thr(3ξ) = CC(O)[C@H](N)C(=O)O; Carboxymethyl = O=C(O)C*; NMeA = CN[C@@H](C)C(=O)O; Orn = NCCC[C@H](N)C(=O)O; Pra = C#CC[C@H](N)C(=O)O; Dab = NCC[C@H](N)C(=O)O; Nva = CCC[C@H](N)C(=O)O; Dap = NC[C@H](N)C(=O)O; ξC = NC(CS)C(=O)O

By IC50 is commonly meant the concentration that inhibits the measured activity by half.

T1 sequence (Q15116 25-288): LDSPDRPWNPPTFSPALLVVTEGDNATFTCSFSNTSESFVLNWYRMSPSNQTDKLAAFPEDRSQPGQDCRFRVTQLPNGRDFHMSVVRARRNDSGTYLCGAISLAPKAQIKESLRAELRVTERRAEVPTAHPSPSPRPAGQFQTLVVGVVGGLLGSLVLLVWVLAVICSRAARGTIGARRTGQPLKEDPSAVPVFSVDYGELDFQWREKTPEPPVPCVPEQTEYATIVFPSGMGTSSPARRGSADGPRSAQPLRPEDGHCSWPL

As to `CC(C)C[C@@H]1NC(=O)[C@H](CCCNC(=N)N)NC(=O)[C@@H](Cc2cnc[nH]2)NC(=O)[C@H](C)N(C)C(=O)[C@H](CCCNC(=N)N)NC(=O)[C@H](Cc2ccc(-c3ccccc3)cc2)NC(=O)[C@H](C(C)C)NC(=O)[C@H](Cc2c[nH]c3ccccc23)NC(=O)[C@H](CC(=O)O)NC(=O)[C@H](Cc2ccc(O)cc2)NC(=O)[C@H](Cc2ccccc2)NC(=O)CSC[C@@H](C(=O)NCC(N)=O)NC(=O)[C@H](CO)NC(=O)[C@H](C(C)C)NC1=O` [Compound 1022] ({CH2CO}-FYDWV[Bip]R[NMeA][dH]RLVSCG-NH2; thioether N-14), the IC50 under setting [1] came to 0.64 µM. Regarding `CCC(C)[C@@H]1NC(=O)[C@H](Cc2ccc(-c3ccccc3)cc2)NC(=O)[C@H](C(C)C)NC(=O)[C@H](Cc2c[nH]c3ccccc23)NC(=O)[C@H](CC(=O)O)NC(=O)[C@H](Cc2ccc(O)cc2)NC(=O)[C@H](Cc2ccncc2)NC(=O)CSCC(C(=O)N[C@@H](CCN)C(=O)O)NC(=O)[C@H](C(C)O)NC(=O)[C@H](C(C)C)NC(=O)[C@H](CC2CCCCC2)NC(=O)[C@H](CC(N)=O)NC(=O)[C@@H](CC(C)C)NC(=O)[C@H](C)N(C)C1=O` (stereo partly drawn) [Compound 2213] ({CH2CO}-[4Pal]YDWV[Bip][Ile(3ξ)][NMeA][dL]N[Cha]V[Thr(3ξ)][ξC][Dab]-OH; thioether N-14), the IC50 under setting [1] was determined as 0.02 µM. On the same count and under the same terms, the value for `CC(C)C[C@@H]1NC(=O)[C@H](Cc2c[nH]c3ccccc23)NC(=O)[C@H](CC(=O)O)NC(=O)[C@H](Cc2ccc(Oc3ccccc3)cc2)NC(=O)[C@H](Cc2ccccc2)NC(=O)CSC[C@@H](C(=O)N[C@@H](C)C(N)=O)NC(=O)[C@H](CO)NC(=O)[C@H](C(C)C)NC(=O)[C@H](CC(C)C)NC(=O)[C@H](CC(N)=O)NC(=O)[C@@H](C)NC(=O)[C@H](C)N(C)C(=O)[C@H](C(C)C)NC(=O)[C@H](Cc2ccc(-c3ccccc3)cc2)NC1=O` [Compound 1813] ({CH2CO}-F[Tyr(Ph)]DWL[Bip]V[NMeA][dA]NLVSCA-NH2; thioether N-14) was 0.3 µM. Same read-out and setting: under `CC(C)C[C@@H]1NC(=O)[C@H](CCN)NC(=O)[C@@H](CC(C)C)NC(=O)[C@H](C)N(C)C(=O)[C@H](CCCNC(=N)N)NC(=O)[C@H](Cc2ccc(-c3ccccc3)cc2)NC(=O)[C@H](C(C)C)NC(=O)[C@H](Cc2c[nH]c3ccccc23)NC(=O)[C@H](CC(=O)O)NC(=O)[C@H](Cc2cnc[nH]2)NC(=O)[C@H](Cc2ccccc2)NC(=O)CSC[C@@H](C(=O)N[C@@H](C)C(N)=O)NC(=O)[C@H]([C@@H](C)O)NC(=O)[C@H](C(C)C)NC1=O` [Compound 1130] ({CH2CO}-FHDWV[Bip]R[NMeA][dL][Dab]LVTCA-NH2; thioether N-14) stands 0.18 µM; under `Cc1cccc(C[C@@H]2NC(=O)[C@H](CC(=O)O)NC(=O)[C@H](Cc3ccncc3)NC(=O)[C@H](CN)NC(=O)CSC[C@@H](C(N)=O)NC(=O)[C@H](CO)NC(=O)[C@H](C(C)C)NC(=O)[C@H](CC(C)C)NC(=O)[C@H](CC(N)=O)NC(=O)[C@@H](CC(C)C)NC(=O)[C@H](C)N(C)C(=O)[C@H](C(C)C)NC(=O)[C@H](Cc3ccc(-c4ccccc4)cc3)NC(=O)[C@H](CC(C)C)NC2=O)c1` [Compound 1598] ({CH2CO}-[Dap][4Pal]D[Phe(3-Me)]L[Bip]V[NMeA][dL]NLVSC-NH2; thioether N-14), 0.01 µM. `CC(C)C[C@@H]1NC(=O)[C@H](CCCN)NC(=O)[C@@H](CC(C)C)NC(=O)[C@H](C)N(C)C(=O)[C@H](CCCNC(=N)N)NC(=O)[C@H](Cc2ccc(-c3ccccc3)cc2)NC(=O)[C@H](C(C)C)NC(=O)[C@H](Cc2c[nH]c3ccccc23)NC(=O)[C@H](CC(=O)O)NC(=O)[C@H](Cc2ccc(O)cc2)NC(=O)[C@H](CC(N)=O)NC(=O)CSC[C@@H](C(=O)N[C@@H](CO)C(N)=O)NC(=O)[C@H]([C@@H](C)O)NC(=O)[C@H](C(C)C)NC1=O` [Compound 1177] ({CH2CO}-NYDWV[Bip]R[NMeA][dL][Orn]LVTCS-NH2; thioether N-14): under setting [1], the IC50 turned out to be 0.12 µM. Turning to `CC(C)C[C@@H]1NC(=O)[C@H](Cc2c[nH]c3ccccc23)NC(=O)[C@H](CC(=O)O)NC(=O)[C@H](Cc2ccc(O)cc2)NC(=O)[C@H](Cc2ccccc2)NC(=O)CSC[C@@H](C(=O)NCC(N)=O)NC(=O)[C@H](CO)NC(=O)[C@H](C(C)C)NC(=O)[C@H](CC(C)C)NC(=O)[C@H](CC(N)=O)NC(=O)[C@@H](CC(C)C)NC(=O)[C@H](C)N(C)C(=O)[C@H](CCCNC(N)=O)NC(=O)[C@H](Cc2ccc(-c3ccccc3)cc2)NC1=O` [Compound 1509] ({CH2CO}-FYDWL[Bip][Cit][NMeA][dL]NLVSCG-NH2; thioether N-14), the IC50 under setting [1] turned out to be 0.02 µM. In turn, `CC(C)C[C@H]1NC(=O)[C@H](C)N(C)C(=O)[C@H](Cc2ccc(C(=O)O)cc2)NC(=O)[C@H](Cc2ccc(-c3ccccc3)cc2)NC(=O)[C@H](Cc2ccc(C(=O)O)cc2)NC(=O)[C@H](Cc2cccc(C(F)(F)F)c2)NC(=O)[C@H](CC(=O)O)NC(=O)[C@H](Cc2ccc(C(=O)O)cc2)NC(=O)[C@H](CN2CCOCC2)NC(=O)CSC[C@@H](C(=O)N[C@@H](CCN)C(N)=O)NC(=O)[C@H](CCC(=O)O)NC(=O)[C@H](C(C)C)NC(=O)[C@H](CC2CCCCC2)NC(=O)[C@H](CCN)NC1=O` [Example 2268] ({CH2CO}-[Ala(morpholin-4-yl)][Phe(4-COOH)]D[Phe(3-CF3)][Phe(4-COOH)][Bip][Phe(4-COOH)][NMeA][dL][Dab][Cha]VEC[Dab]-NH2; thioether N-14) came in with an IC50 (Jurkat HPDL1 PD1 IC50 (Method 1), cells printed in nM) of 0.0013 µM. As for `Cc1cccc(C[C@@H]2NC(=O)[C@H](CC(=O)O)NC(=O)[C@H](Cc3ccc(OCC(=O)O)cc3)NC(=O)[C@H](Cc3ccc(F)cc3)NC(=O)CSC[C@@H](C(=O)N[C@@H](CCN)C(N)=O)NC(=O)[C@H](CCC(=O)O)NC(=O)[C@H](C(C)(C)O)NC(=O)[C@H](CC3CCCCC3)NC(=O)[C@H](CCN)NC(=O)[C@@H](CC(C)C)NC(=O)[C@H](C)N(C)C(=O)[C@H](Cc3ccc(OCC(=O)O)cc3)NC(=O)[C@H](Cc3ccc(-c4ccccc4)cc3)NC(=O)[C@H](Cc3ccc(OCC(=O)O)cc3)NC2=O)c1` [Compound 2200] ({CH2CO}-[Phe(4-F)]Y(Carboxymethyl)D[Phe(3-Me)]Y(Carboxymethyl)[Bip]Y(Carboxymethyl)[NMeA][dL][Dab][Cha][Val(3-OH)]EC[Dab]-NH2; thioether N-14), the IC50 under setting [1] came to 0.01 µM. On the same count and under the same terms, the value for `CC(C)C[C@@H]1NC(=O)[C@H](CCN)NC(=O)[C@@H](CC(C)C)NC(=O)[C@H](C)N(C)C(=O)[C@H](C(C)C)NC(=O)[C@H](Cc2ccc(-c3ccccc3)cc2)NC(=O)[C@H](C(C)C)NC(=O)[C@H](Cc2c[nH]c3ccccc23)NC(=O)[C@H](CC(=O)O)NC(=O)[C@H](Cc2cccc(C#N)c2)NC(=O)[C@H](CC(N)=O)NC(=O)CSC[C@@H](C(=O)N[C@@H](C)C(N)=O)NC(=O)[C@H]([C@@H](C)O)NC(=O)[C@H](C(C)C)NC1=O` [Compound 1380] ({CH2CO}-N[Phe(3-CN)]DWV[Bip]V[NMeA][dL][Dab]LVTCA-NH2; thioether N-14) was 0.02 µM. In the case of `CC(C)C[C@@H]1NC(=O)[C@H](CCN)NC(=O)[C@@H](CC(C)C)NC(=O)[C@H](C)N(C)C(=O)[C@H](CCC(=O)O)NC(=O)[C@H](Cc2ccc(-c3ccccc3)cc2)NC(=O)[C@H](C(C)C)NC(=O)[C@H](Cc2c[nH]c3ccccc23)NC(=O)[C@H](CC(=O)O)NC(=O)[C@H](Cc2ccc(O)cc2)NC(=O)[C@H](Cc2ccccc2)NC(=O)CSC[C@@H](C(=O)N[C@@H](CCC(=O)O)C(N)=O)NC(=O)[C@H]([C@@H](C)O)NC(=O)[C@H](C(C)C)NC1=O` [Compound 1164] ({CH2CO}-FYDWV[Bip]E[NMeA][dL][Dab]LVTCE-NH2; thioether N-14), under setting [1], the IC50 was 0.07 µM. On the same count and under the same terms, under `C#CC[C@H](NC(=O)[C@@H](CC(N)=O)NC(=O)[C@@H]1CSCC(=O)N[C@@H](Cc2ccc(OCC(=O)O)cc2)C(=O)N[C@@H](Cc2ccc(OCC(=O)O)cc2)C(=O)N[C@@H](CC(=O)O)C(=O)N[C@@H](Cc2c[nH]c3ccccc23)C(=O)N[C@@H](C(C)C)C(=O)N[C@@H](Cc2ccc(-c3ccccc3)cc2)C(=O)N[C@@H]([C@@H](C)CC)C(=O)N(C)[C@@H](C)C(=O)N[C@H](CC(C)C)C(=O)N[C@@H](CCC)C(=O)N[C@@H](CC2CCCCC2)C(=O)N[C@@H](C(C)(C)O)C(=O)N[C@@H](CO)C(=O)N1)C(N)=O` [Compound 1718] ({CH2CO}-Y(Carboxymethyl)Y(Carboxymethyl)DWV[Bip]I[NMeA][dL][Nva][Cha][Val(3-OH)]SC[dN][Pra]-NH2; thioether N-14) stands 0.03 µM; under `CC(C)C[C@@H]1NC(=O)[C@H](CCN)NC(=O)[C@@H](CC(C)C)NC(=O)[C@H](C)N(C)C(=O)[C@H](CCCNC(N)=O)NC(=O)[C@H](Cc2ccc(-c3ccccc3)cc2)NC(=O)[C@H](C(C)C)NC(=O)[C@H](Cc2c[nH]c3ccccc23)NC(=O)[C@H](CC(=O)O)NC(=O)[C@H](Cc2ccc(CN)cc2)NC(=O)[C@H](CC(N)=O)NC(=O)CSC[C@@H](C(=O)N[C@@H](C)C(N)=O)NC(=O)[C@H]([C@@H](C)O)NC(=O)[C@H](C(C)C)NC1=O` [Compound 1322] ({CH2CO}-N[Phe(4-CH2NH2)]DWV[Bip][Cit][NMeA][dL][Dab]LVTCA-NH2; thioether N-14), 0.02 µM.

Take `CC(C)C[C@@H]1NC(=O)[C@H](CCN)NC(=O)[C@@H](CC(C)C)NC(=O)[C@H](C)N(C)C(=O)[C@H](CCCNC(=N)N)NC(=O)[C@H](Cc2ccc(-c3ccccc3)cc2)NC(=O)[C@H](C(C)C)NC(=O)[C@H](Cc2c[nH]c3ccccc23)NC(=O)[C@H](CC(=O)O)NC(=O)[C@H](Cc2ccc(O)cc2)NC(=O)[C@H](CCCN)NC(=O)CSC[C@@H](C(=O)N[C@@H](C)C(N)=O)NC(=O)[C@H]([C@@H](C)O)NC(=O)[C@H](C(C)C)NC1=O` [Compound 1341] ({CH2CO}-[Orn]YDWV[Bip]R[NMeA][dL][Dab]LVTCA-NH2; thioether N-14): under setting [1], the IC50 is 0.05 µM.
